Source: patent US11306081B2, “Phenylacetamides as inhibitors of rock” (BRISTOL-MYERS SQUIBB COMPANY, priority 2017, dated 2022)
pIC50: −log10 of the molar value. Like-named read-outs stand apart in the source and are kept apart here. One block for each molecule: values may come before it.

Legend:
ROCK2 = ROCK2 (Homo sapiens (Human), UniProt O75116); test: ROCK assay (LABCHIP 3000 peptide phosphorylation assay); format: biochemical; settings: 5 μM ATP, 1.5 μM peptide substrate, dose-response
Summary of the method: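 Rho kinase variants in 20 mM HEPES pH 7.5, 20 mM MgCl2, 0.015% Brij-35, 4 mM DTT, 5 μM ATP, 1.5 μM FITC-AHA-AKRRRLSSLRA-OH peptide; DMSO <2%. EDTA-stopped; phosphorylated/non-phosphorylated peptide separated by microfluidic LabChip readout. Dose-response inhibition curve-fitted to give IC50.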

[1] = test system: spontaneously hypertensive rat, renal hypertensive rat and deoxycortisone acetate salt hypertensive rat models; settings: cited from earlier work
[2] = test system: neointimal formation in rats; settings: cited from earlier work
Dahl salt-sensitive rats = settings: rat, in vivo; cited from earlier work
rat stroke model = settings: in vivo; cited from earlier work
[3] = test system: porcine model of IL-1 beta-induced coronary stenosis; settings: long term treatment; cited from earlier work

Sequence of ROCK2 (O75116 whole entry, species assumed): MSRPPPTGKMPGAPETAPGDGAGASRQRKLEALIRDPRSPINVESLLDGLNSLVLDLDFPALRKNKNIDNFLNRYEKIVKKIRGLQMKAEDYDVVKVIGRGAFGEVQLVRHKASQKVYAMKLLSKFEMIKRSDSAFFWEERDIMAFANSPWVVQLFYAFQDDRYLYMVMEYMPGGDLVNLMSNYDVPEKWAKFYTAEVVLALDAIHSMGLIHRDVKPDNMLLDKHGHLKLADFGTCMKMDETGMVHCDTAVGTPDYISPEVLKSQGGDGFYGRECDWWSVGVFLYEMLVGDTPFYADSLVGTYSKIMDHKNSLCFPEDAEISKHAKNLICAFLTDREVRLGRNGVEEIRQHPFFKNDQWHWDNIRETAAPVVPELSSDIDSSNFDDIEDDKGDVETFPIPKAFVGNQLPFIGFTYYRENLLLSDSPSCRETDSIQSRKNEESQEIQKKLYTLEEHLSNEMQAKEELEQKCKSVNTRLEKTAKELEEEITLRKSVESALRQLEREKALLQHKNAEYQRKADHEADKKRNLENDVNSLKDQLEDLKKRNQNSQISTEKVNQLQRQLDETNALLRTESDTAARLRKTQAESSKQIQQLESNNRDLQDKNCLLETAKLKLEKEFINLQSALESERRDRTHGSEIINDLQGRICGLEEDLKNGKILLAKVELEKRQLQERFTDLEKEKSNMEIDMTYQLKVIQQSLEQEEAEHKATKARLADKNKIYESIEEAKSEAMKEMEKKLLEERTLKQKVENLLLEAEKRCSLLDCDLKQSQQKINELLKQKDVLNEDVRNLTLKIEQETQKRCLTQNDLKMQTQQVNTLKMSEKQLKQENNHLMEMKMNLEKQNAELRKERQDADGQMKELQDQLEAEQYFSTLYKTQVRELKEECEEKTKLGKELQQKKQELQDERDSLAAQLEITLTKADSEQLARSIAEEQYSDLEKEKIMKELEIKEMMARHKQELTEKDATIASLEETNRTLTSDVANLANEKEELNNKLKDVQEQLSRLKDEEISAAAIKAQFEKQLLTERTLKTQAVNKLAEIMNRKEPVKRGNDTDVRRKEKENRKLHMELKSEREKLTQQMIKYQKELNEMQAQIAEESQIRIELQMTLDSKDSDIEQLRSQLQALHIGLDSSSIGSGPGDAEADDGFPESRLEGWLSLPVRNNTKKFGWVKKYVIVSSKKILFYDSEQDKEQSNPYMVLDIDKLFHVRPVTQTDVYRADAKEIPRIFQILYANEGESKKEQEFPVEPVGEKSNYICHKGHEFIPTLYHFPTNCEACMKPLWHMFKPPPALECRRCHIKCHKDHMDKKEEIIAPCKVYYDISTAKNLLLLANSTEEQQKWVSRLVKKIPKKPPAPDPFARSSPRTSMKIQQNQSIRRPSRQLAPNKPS

pIC50 (ROCK2): 8.00
Structure (SMILES): NC(=O)c1cccnc1Oc1ccc(CC(=O)Nc2nc3cc(F)ccc3n2CC2CC2)cc1Cl [Example 174, 2-(2-chloro-4-(2-((1-(cyclo-propylmethyl)-5-fluoro-1H-benzo[d]-imidazol-2-yl)-amino)-2-oxo-ethyl)phenoxy)-nicotinamide]

pIC50 (ROCK2): 7.36
Structure (SMILES): NC(=O)c1cccnc1Oc1ccc(CC(=O)Nc2nc3ccc(C(F)(F)F)cc3n2CC2CC2)cc1F [Example 175, 2-(4-(2-((1-(cyclopropyl-methyl)-6-(trifluoro-methyl)-1H-benzo[d]-imidazol-2-yl)amino)-2-oxoethyl)-2-fluorophenoxy)-nicotinamide]

pIC50 (ROCK2): 7.80
Structure (SMILES): NC(=O)c1cccnc1Oc1ccc(CC(=O)Nc2nc3ccc(C(F)(F)F)cc3n2CC2CC2)cc1Cl [Example 176, 2-(2-chloro-4-(2-((1-(cyclo-propylmethyl)-6-(trifluoro-methyl)-1H-benzo[d]-imidazol-2-yl)-amino)-2-oxo-ethyl)phenoxy)-nicotinamide]

pIC50 (ROCK2): 8.15
Structure (SMILES): NC(=O)c1cccnc1Oc1ccc(CC(=O)Nc2nc3cc(C(F)(F)F)ccc3n2CC2CC2)cc1Cl [Example 177, 2-(2-chloro-4-(2-((1-(cyclo-propylmethyl)-5-(trifluoro-methyl)-1H-benzo[d]-imidazol-2-yl)-amino)-2-oxo-ethyl)phenoxy)-nicotinamide]

pIC50 (ROCK2): 7.85
Structure (SMILES): CC(C)(O)COc1ccc2nc(NC(=O)Cc3ccc(Oc4ncccc4C(N)=O)c(F)c3)n(CC3CC3)c2c1 [Example 178, 2-(4-(2-((1-(cyclopropylmethyl)-6-(2-hydroxy-2-methylpropoxy)-1H-benzo[d]imidazol-2-yl)amino)-2-oxoethyl)-2-fluorophenoxy)nicotinamide]

Structure (SMILES): C[C@@H](N)[C@H]1CC[C@H](C(=O)Nc2ccncc2)CC1 [Example Y-27632, Y-27632]
blood pressure ([1]; control rats): only a minor effect on blood pressure | blood pressure ([1]; three rat models of hypertension): significantly decrease blood pressure | neointimal formation [2]: inhibited neointimal formation | ventricular hypertrophy, fibrosis and function (Dahl salt-sensitive rats): improve ventricular hypertrophy, fibrosis and function

Structure (SMILES): O=S(=O)(c1cccc2cnccc12)N1CCCNCC1 [fasudil]
infarct size and neurologic deficit (rat stroke model): reduce both the infarct size and neurologic deficit | coronary constrictive remodeling [3]: promote a regression of coronary constrictive remodeling | coronary stenosis [3]: progressively reduce coronary stenosis
